In ChEMBL document CHEMBL4265946, “Activity of oxygen-versus sulfur-containing analogs of the Flex-Het anticancer agent SHetA2” (Eur J Med Chem, 2018):

Assays:
A2780 [1] = assay: Growth inhibition of human A2780 cells after 72 hrs by CellTiter-96 assay; format: functional, cell-based; conditions: A2780, 72 h
A2780 [2] = assay: Growth inhibition of human A2780 cells at 10 uM after 72 hrs by CellTiter-96 assay relative to control; format: functional; conditions: A2780, 72 h, read-out: GI
[3] = Toxicity in rat; format: organism-based; conditions: in vivo
[4] = Toxicity in dog; format: organism-based, Canis lupus familiaris; conditions: in vivo

SMILES | IC50 (A2780 [1]) [µM] | inhibition of growth at 10 µM (A2780 [2]) [%] | NOAEL [3] [mg/kg/day] | NOAEL [4] [mg/kg/day]
CC1(C)CC(C)(C)c2cc(N/C(S)=N/c3ccc([N+](=O)[O-])cc3)ccc2O1 | 6.96 | 87 | – | –
CCC1(CC)CC(CC)(CC)c2cc(NC(=O)Nc3ccc(C(F)(F)F)cc3)ccc2O1 | 2 | 86.2 | – | –
CC1(C)CCOc2ccc(NC(=O)Nc3ccc([N+](=O)[O-])cc3)cc21 | 6.7 | 74 | – | –
CCC1(CC)CC(CC)(CC)c2cc(NC(=S)Nc3ccc([N+](=O)[O-])cc3)ccc2O1 | 4.6 | 94 | – | –
CC1(C)CCOc2ccc(NC(=O)Nc3ccc(OC(F)(F)F)cc3)cc21 | 3.5 | 36 | – | –
CCC1(CC)CC(CC)(CC)c2cc(NC(=O)Nc3ccc(OC(F)(F)F)cc3)ccc2O1 | 3 | 67 | – | –
CC1(C)CC(C)(C)c2cc(NC(=O)Nc3ccc(OC(F)(F)F)cc3)ccc2O1 | 4.56 | 91.5 | – | –
CCC1(CC)CC(CC)(CC)c2cc(NC(=O)Nc3ccc([N+](=O)[O-])cc3)ccc2O1 | 2.09 | 91.4 | – | –
CCC1(CC)CC(C)(C)c2cc(NC(=O)Nc3ccc([N+](=O)[O-])cc3)ccc2O1 | 2.17 | 93.2 | – | –
CC1(C)CC(C)(C)c2cc(NC(=O)Nc3ccc(C#N)cc3)ccc2O1 | 4.7 | 93 | – | –
CCC1(CC)CC(C)(C)Oc2ccc(NC(=S)Nc3ccc([N+](=O)[O-])cc3)cc21 | 3.69 | 95.7 | – | –
CCC1(CC)CC(C)(C)Oc2ccc(NC(=O)Nc3ccc(C(F)(F)F)cc3)cc21 | 2.43 | 93.3 | – | –

Further molecules by falling IC50 (A2780 [1]), results first:

IC50 (A2780 [1]) [µM] | SMILES | inhibition of growth at 10 µM (A2780 [2]) [%] | NOAEL [3] [mg/kg/day] | NOAEL [4] [mg/kg/day]
43.7 | CC1(C)CC(C)(C)c2cc(NC(=S)Nc3ccc(C(F)(F)F)cc3)ccc2O1 | 2 | – | –
6.9 | CC1(C)CC(C)(C)c2cc(NC(=S)Nc3ccc(S(N)(=O)=O)cc3)ccc2O1 | 32 | – | –
6.4 | CC1(C)CCOc2ccc(NC(=S)Nc3ccc([N+](=O)[O-])cc3)cc21 | 19 | – | –
5.5 | CC1(C)CCOc2ccc(NC(=S)Nc3ccc(C(F)(F)F)cc3)cc21 | 28 | – | –
5 | CC1(C)CCOc2ccc(NC(=O)Nc3ccc(C(F)(F)F)cc3)cc21 | 47 | – | –
4.7 | CCC1(CC)CC(C)(C)Oc2ccc(NC(=S)Nc3ccc(C(F)(F)F)cc3)cc21 | 11.8 | – | –
4.3 | CC1(C)CCOc2ccc(NC(=S)Nc3ccc(OC(F)(F)F)cc3)cc21 | 16 | – | –
4.3 | CCOC(=O)c1ccc(N/C(S)=N/c2ccc3c(c2)C(C)(C)CC(C)(C)O3)cc1 | 26 | – | –
4.1 | CC1(C)CC(C)(C)c2cc(NC(=O)Nc3ccc([N+](=O)[O-])cc3)ccc2O1 | 79 | – | –
3.6 | CC1(C)CC(C)(C)c2cc(NC(=O)Nc3ccc(C(F)(F)F)cc3)ccc2O1 | 88.4 | – | –
3.17 | CC1(C)CC(C)(C)c2cc(NC(=S)Nc3ccc([N+](=O)[O-])cc3)ccc2S1 [SHETA-2] | 84.3 | 500 | > 1500
2.9 | CCC1(CC)CC(C)(C)c2cc(NC(=S)Nc3ccc([N+](=O)[O-])cc3)ccc2O1 | 93.9 | – | –
2.45 | CCC1(CC)CC(C)(C)c2cc(NC(=O)Nc3ccc(C(F)(F)F)cc3)ccc2O1 | 92.4 | – | –
2.05 | CCC1(CC)CC(C)(C)Oc2ccc(NC(=O)Nc3ccc([N+](=O)[O-])cc3)cc21 | 93.7 | – | –
